Source: US9663526B2, “Aminopyrimidinyl compounds” (Pfizer Inc., priority 2014, dated 2017)
Read-outs that look alike come from different tables or passages of the source.

Columns and labels:
[1] = molecular target: recombinant human kinase domain of JAK1 (Homo sapiens (Human), UniProt P23458); experiment: JAK Caliper enzyme assay at 1 mM ATP (JAK1); format: biochemical;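 note: microfluidic mobility-shift readout of synthetic fluorescent peptide phosphorylation, percent product converted from peak height, inhibition relative to DMSO-only wells as uninhibited baseline, room temperature incubation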
[2] = molecular target: recombinant human kinase domain of JAK2 (Homo sapiens (Human), UniProt O60674); experiment: JAK Caliper enzyme assay at 1 mM ATP (JAK2); format: biochemical;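 note: microfluidic mobility-shift read-out of fluorescent synthetic peptide phosphorylation, percent product converted from peak heights, room temperature, DMSO-only wells as uninhibited baseline, inhibition curve fit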
[3] = molecular target: recombinant human kinase domain of JAK3 (Homo sapiens (Human), UniProt P52333); experiment: JAK Caliper enzyme assay at 1 mM ATP (JAK3); format: biochemical; details: 1 mM ATP; read-out: IC50 (nM) JAK3;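 note: microfluidic mobility-shift readout of synthetic peptide phosphorylation, percent product converted from peak heights, normalized to DMSO-only wells as uninhibited baseline, room temperature incubation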
[4] = molecular target: recombinant human kinase domain of TYK2 (Homo sapiens (Human), UniProt P29597); experiment: JAK Caliper enzyme assay at 1 mM ATP (TYK2); format: biochemical; details: 1 mM ATP; read-out: IC50 (nM) TYK2;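 note: microfluidic mobility-shift readout of synthetic peptide phosphorylation by TYK2, tuned to 20–30% conversion at room temperature, reaction stopped with EDTA, DMSO-only wells as uninhibited baseline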
[5] = test system: interferon alpha signalling (TYK2 and JAK1), STAT3 phosphorylation; experiment: Human whole blood INFα induced STAT3 phosphorylation assay; format: cell-based; details: compound 60 minutes at 37° C., IFNα 5000 U/ml for 15 minutes, pSTAT3 in lymphocyte population by flow cytometry, read-out: HWB IFN alpha IC50;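 note: flow cytometry with anti-pSTAT3 staining, signal as percent-positive × mean fluorescence, baseline from unstimulated wells, 11-point dilution series, IC50 as inhibition of pSTAT3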
[6] = 1 mM ATP, read-out: IC50 (nM) JAK1

recombinant human kinase domain of JAK3, sequence (P52333 822-1111): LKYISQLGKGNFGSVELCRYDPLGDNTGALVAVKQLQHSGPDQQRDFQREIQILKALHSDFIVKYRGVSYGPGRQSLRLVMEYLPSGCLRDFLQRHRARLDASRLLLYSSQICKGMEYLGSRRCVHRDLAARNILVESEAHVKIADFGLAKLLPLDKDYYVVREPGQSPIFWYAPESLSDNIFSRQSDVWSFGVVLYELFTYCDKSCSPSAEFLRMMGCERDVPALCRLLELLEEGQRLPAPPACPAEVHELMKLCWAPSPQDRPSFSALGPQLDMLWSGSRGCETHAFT
recombinant human kinase domain of JAK2, sequence (O60674 849-1124): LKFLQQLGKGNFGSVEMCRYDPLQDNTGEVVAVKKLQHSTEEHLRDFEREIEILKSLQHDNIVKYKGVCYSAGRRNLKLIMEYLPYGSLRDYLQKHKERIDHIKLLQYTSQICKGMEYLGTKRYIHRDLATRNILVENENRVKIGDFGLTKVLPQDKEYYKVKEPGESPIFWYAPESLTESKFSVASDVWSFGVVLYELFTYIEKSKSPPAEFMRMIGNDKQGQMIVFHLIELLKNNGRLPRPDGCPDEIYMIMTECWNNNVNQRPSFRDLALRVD
recombinant human kinase domain of TYK2, sequence (P29597 897-1176): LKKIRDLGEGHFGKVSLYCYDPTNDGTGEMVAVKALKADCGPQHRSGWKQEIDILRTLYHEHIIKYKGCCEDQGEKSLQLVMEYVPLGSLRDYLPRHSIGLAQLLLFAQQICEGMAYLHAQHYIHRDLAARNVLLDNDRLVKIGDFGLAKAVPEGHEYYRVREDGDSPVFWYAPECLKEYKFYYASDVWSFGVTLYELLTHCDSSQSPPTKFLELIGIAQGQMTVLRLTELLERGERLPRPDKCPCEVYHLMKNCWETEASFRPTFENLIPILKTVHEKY
recombinant human kinase domain of JAK1, sequence (P23458 875-1153): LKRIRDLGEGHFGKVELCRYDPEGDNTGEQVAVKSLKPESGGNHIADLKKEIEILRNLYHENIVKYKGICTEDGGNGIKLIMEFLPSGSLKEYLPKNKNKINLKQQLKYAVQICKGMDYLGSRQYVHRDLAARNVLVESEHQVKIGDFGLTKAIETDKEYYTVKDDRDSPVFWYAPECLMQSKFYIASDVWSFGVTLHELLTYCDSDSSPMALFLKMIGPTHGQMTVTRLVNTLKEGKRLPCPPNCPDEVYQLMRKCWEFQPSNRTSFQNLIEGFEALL

Compound	IC50 [1, 6]	IC50 [2]	IC50 [3]	IC50 [4]	IC50 [5]	IC50 [1]
CCNC(=O)N1[C@@H]2CC[C@H]1CN(c1ccnc(Nc3cnsc3)n1)C2 [Example 74, (1R,5S)—N-ethyl-3-[2-(1,2-thiazol-4-ylamino)pyrimidin-4-yl]-3,8-diazabicyclo[3.2.1 l]octane-8-carboxamide]	67 nM	691 nM	> 10000 nM	65 nM	213 nM	
CNC(=O)c1ncc(Nc2nccc(N3C[C@H]4CC[C@@H](C3)N4C(=O)[C@@H]3CC3(F)F)n2)cc1F [Example 29, 5-({4-[(1R,5S)-8-{[(1S)-2,2-difluorocyclopropyl]carbonyl}-3,8-diazabicyclo[3.2.1]oct-3-yl]pyrimidin-2-yl}amino)-3-fluoro-N-methylpyridine-2-carboxamide]		487 nM	> 10000 nM	31 nM	118 nM	131 nM
Cn1cc(Nc2nccc(N3C[C@H]4CC[C@@H](C3)N4C3(CC#N)CN(S(C)(=O)=O)C3)n2)cn1 [Example 83, {3-[(1R,5S)-3-{2-[(1-methyl-1H-pyrazol-4-yl)amino]pyrimidin-4-yl}-3,8-diazabicyclo[3.2.1]oct-8-yl]-1-(methylsulfonyl)azetidin-3-yl}acetonitrile]			1240 nM		85 nM	
CCNC(=O)N1[C@@H]2CC[C@H]1CN(c1ccnc(Nc3cnc(C(=O)NC)c(F)c3)n1)C2 [Example 87, (1R,5S)—N-ethyl-3-(2-{[5-fluoro-6-(methylcarbamoyl)pyridin-3-yl]amino}pyrimidin-4-yl)-3,8-diazabicyclo[3.2.1]octane-8-carboxamide]	337 nM	1790 nM	> 10000 nM	93 nM	582 nM	
CCn1cc(Nc2nccc(N3C[C@H]4CC[C@@H](C3)N4C(=O)[C@@H]3C[C@H]3C#N)n2)cn1 [Example 24, (1R,2R)-2-{[(1R,5S)-3-{2-[(1-ethyl-1H-pyrazol-4-yl)amino]pyrimidin-4-yl}-3,8-diazabicyclo[3.2.1]oct-8-yl]carbonyl}cyclopropanecarbonitrile]	13 nM	67 nM	4990 nM		43 nM	
Cn1cc(Nc2nccc(N3C[C@H]4CC[C@@H](C3)N4C3(CC#N)COC3)n2)cn1 [Example 84, {3-[(1R,5S)-3-{2-[(1-methyl-1H-pyrazol-4-yl)amino]pyrimidin-4-yl}-3,8-diazabicyclo[3.2.1]oct-8-yl]oxetan-3-yl}acetonitrile]	141 nM	155 nM	> 10000 nM	62 nM	156 nM	
O=C([C@@H]1CC1(F)F)N1[C@@H]2CC[C@H]1CN(c1ccnc(Nc3cnc(N4CC[C@H](O)C4)c(F)c3)n1)C2 [Example 20, [(1S)-2,2-difluorocyclopropyl]{(1R,5S)-3-[2-({5-fluoro-6-[(3S)-3-hydroxypyrrolidin-1-yl]pyridin-3-yl}amino)pyrimidin-4-yl]-3,8-diazabicyclo[3.2.1]oct-8-yl}methanone]	314 nM	346 nM	> 10000 nM	58 nM	458 nM	
CCNC(=O)c1ccc(Nc2nccc(N3CC4CC(C3)N4C(=O)C(F)(F)F)n2)cc1C [Example 115, N-ethyl-2-methyl-4-({4-[6-(trifluoroacetyl)-3,6-diazabicyclo[3.1.1]hept-3-yl]pyrimidin-2-yl}amino)benzamide]	3790 nM	3310 nM	> 10000 nM	64 nM	234 nM	
CNC(=O)c1ncc(Nc2nccc(N3C[C@H]4CC[C@@H](C3)N4C(=O)[C@@H]3C[C@H]3F)n2)cc1C [Example 45, 5-({4-[(1R,5S)-8-{[(1S,2R)-2-fluorocyclopropyl]carbonyl}-3,8-diazabicyclo[3.2.1]oct-3-yl]pyrimidin-2-yl}amino)-N,3-dimethylpyridine-2-carboxamide]	46 nM	100 nM	7400 nM		110 nM	
CC(CC#N)N1[C@@H]2CC[C@H]1CN(c1ccnc(Nc3cnn(C)c3)n1)C2 (stereo partly drawn) [Example 80, 3-[(1R,5S)-3-{2-[(1-methyl-1H-pyrazol-4-yl)amino]pyrimidin-4-yl}-3,8-diazabicyclo[3.2.1 l]oct-8-yl]butanenitrile]	190 nM	436 nM	> 10000 nM	79 nM	112 nM	
O=C([C@@H]1CC1(F)F)N1[C@@H]2CC[C@H]1CN(c1ccnc(Nc3cnc(CCO)c(F)c3)n1)C2 [Example 19, [(1S)-2,2-difluorocyclopropyl][(1R,5S)-3-(2-{[5-fluoro-6-(2-hydroxyethyl)pyridin-3-yl]amino}pyrimidin-4-yl)-3,8-diazabicyclo[3.2.1]oct-8-yl]methanone]	463 nM	402 nM	> 10000 nM	52 nM	238 nM	
CNC(=O)c1ncc(Nc2nccc(N3C[C@H]4CC[C@@H](C3)N4C(=O)NCC#N)n2)cc1C [Example 90, (1R,5S)—N-(cyanomethyl)-3-(2-{[5-methyl-6-(methylcarbamoyl)pyridin-3-yl]amino}pyrimidin-4-yl)-3,8-diazabicyclo[3.2.1]octane-8-carboxamide]	17 nM		4170 nM		247 nM	
Cn1cc(Nc2ncc(F)c(N3C[C@@]4(CO)C[C@@]4(NC(=O)[C@@H]4CC4(F)F)C3)n2)cn1 [Example 109, (1S)-2,2-difluoro-N-[(1S,5S)-3-{5-fluoro-2-[(1-methyl-1H-pyrazol-4-yl)amino]pyrimidin-4-yl}-5-(hydroxymethyl)-3-azabicyclo[3.1.0]hex-1-yl]cyclopropanecarboxamide]	211 nM		> 10000 nM	51 nM	507 nM	
Cc1cc(Nc2nccc(N3C[C@H]4CC[C@@H](C3)N4C(=O)[C@@H]3CC3(F)F)n2)cnc1C(N)=O [Example 35, 5-({4-[(1R,5S)-8-{[(1S)-2,2-difluorocyclopropyl]carbonyl}-3,8-diazabicyclo[3.2.1]oct-3-yl]pyrimidin-2-yl}amino)-3-methylpyridine-2-carboxamide]	170 nM	337 nM	> 10000 nM		90 nM	
CNC(=O)c1ncc(Nc2nccc(N3C[C@H]4CC[C@@H](C3)N4C(=O)[C@H]3C[C@@H]3F)n2)cc1C [Example 44, 5-({4-[(1R,5S)-8-{[(1R,2S)-2-fluorocyclopropyl]carbonyl}-3,8-diazabicyclo[3.2.1]oct-3-yl]pyrimidin-2-yl}amino)-N,3-dimethylpyridine-2-carboxamide]	475 nM	854 nM	> 10000 nM		562 nM	
Cc1cnc(Nc2ccc(OCCO)nc2)nc1N1C[C@H]2[C@@H](C)[C@@]2(NC(=O)[C@H]2C[C@@H]2C#N)C1 [Example 98, (1S,2S)-2-cyano-N-[(1S,5R,6R)-3-(2-{[6-(2-hydroxyethoxy)pyridin-3-yl]amino}-5-methylpyrimidin-4-yl)-6-methyl-3-azabicyclo[3.1.0]hex-1-yl]cyclopropanecarboxamide]	13 nM	147 nM	2600 nM		246 nM	
O=C([C@@H]1CC1(F)F)N1[C@@H]2CC[C@H]1CN(c1ccnc(Nc3cn[nH]c3)n1)C2 [Example 51, ((1R,5S)-3-(2-((1H-pyrazol-4-yl)amino)pyrimidin-4-yl)-3,8-diazabicyclo[3.2.1]octan-8-yl)((S)-2,2-difluorocyclopropyl)methanone]	13 nM	97 nM	8610 nM		20 nM	
Cn1cc(Nc2nccc(N3C[C@H]4CC[C@@H](C3)N4Cc3ccns3)n2)cn1 [Example 55, N-(1-methyl-1H-pyrazol-4-yl)-4-[(1R,5S)-8-(1,2-thiazol-5-ylmethyl)-3,8-diazabicyclo[3.2.1]oct-3-yl]pyrimidin-2-amine]	35 nM	221 nM	8620 nM		168 nM	
CCNC(=O)N1[C@@H]2CC[C@H]1CN(c1ccnc(Nc3cn[nH]c3)n1)C2 [Example 5, (1R,5S)—N-ethyl-3-[2-(1H-pyrazol-4-ylamino)pyrimidin-4-yl]-3,8-diazabicyclo[3.2.1]octane-8-carboxamide]		477 nM	> 10000 nM		105 nM	
CCNC(=O)c1ncc(Nc2nccc(N3C[C@H]4CC[C@@H](C3)N4C(=O)C3CC3)n2)cc1C [Example 14, 5-({4-[(1R,5S)-8-(cyclopropylcarbonyl)-3,8-diazabicyclo[3.2.1]oct-3-yl]pyrimidin-2-yl}amino)-N-ethyl-3-methylpyridine-2-carboxamide]			> 10000 nM	79 nM	287 nM	
Cn1cc(Nc2nccc(N3C[C@H]4CC[C@@H](C3)N4Cc3cnoc3)n2)cn1 [Example 58, N-(1-methyl-1H-pyrazol-4-yl)-4-[(1R,5S)-8-(1,2-oxazol-4-ylmethyl)-3,8-diazabicyclo[3.2.1]oct-3-yl]pyrimidin-2-amine]	267 nM		> 10000 nM	73 nM	158 nM	
CNC(=O)c1ncc(Nc2nccc(N3C[C@H]4CC[C@@H](C3)N4C(=O)[C@@H]3C[C@H]3C#N)n2)cc1C [Example 32, 5-({4-[(1R,5S)-8-{[(1R,2R)-2-cyanocyclopropyl]carbonyl}-3,8-diazabicyclo[3.2.1]oct-3-yl]pyrimidin-2-yl}amino)-N,3-dimethylpyridine-2-carboxamide]		140 nM	> 10000 nM		115 nM	
